Measured values reported in patent US4808584A, “Quinolinecarboxylic acid derivatives and antibacterial agent containing the same” (Kanebo, Ltd., priority 1987, dated 1989).
Values after ≈ are worked out from the molar mass of the structure shown.

How the values were obtained:
[1] = system: methicillin resistant Staphylococcus aureus; test: Minimum inhibitory concentration against clinically isolated methicillin resistant Staphylococcus aureus; format: cell-based
Description: The compound (B) was dissolved in sterilized distilled water, and ofloxacin in 0.1N aqueous potassium hydroxide, to prepare a solution of 5000 μg/ml in concentration each. The above solutions were then diluted with sterilized distilled water to prepare a standard solution with a concentration of the test compound: 1000 μg/ml each. The test was carried out by a method approved by Japan Society of Chemotherapy (ibidem) to measure minimum inhibitory concentration (MIC) against 54 strains of clinically isolated methicillin resistant Staphylococcus aureus, from which there were calculated a range of MIC (MICrange) of the test compound against these resistant strains, a minimum concentration for inhibiting the growth of the strains by 50% (MIC50) and a minimum concentration for inhibiting the growth of the strains by 90% (MIC90).

[2] = system: Pseudomonas aeruginosa E-2; test: Effect on treatment of general infectious disease; format: in vivo, ddY male mice; conditions: E2, 168 h, P. aeruginosa E-2, 1.6×10^4 CFU/mouse i.p., oral one hour after infection, survival after one week
Description: Pseudomonas aeruginosa E-2 (1.6×10^4 CFU/mouse)
(§1) The test microorganisms were subjected to standing culture in Trypto-Soya Agar "Nissui" (made by Nissui Seiyaku K.K., Japan) at 37° C. for 16 to 18 hours. The culture was then diluted with PBS (Dulbecco's phosphate buffered saline) and mixed with an equivalent amount of 10% (w/v) Mucin (BACTO MUCIN BACTERIOLOGICAL, made by Difco Co.) to prepare a microorganism solution. The thus prepared microorganism solution (0.5 ml each) was intraperitoneally innoculated to ddY male mice (4 weeks age, weighing 20-22 g, 5 mice in each group), to infect the animals. One hour after the infection, the compound (B) of the present invention dissolved in sterilized distilled water or ofloxacin suspended in 0.5% (w/v) aqueous sodium carboxymethyl cellulose solution was orally adiministered to mice.
(§2) The mice were daily observed for one week, and from the survival number of mice after one week, the 50% effective dose (ED50) was calculated by Weil method.

[3] = system: Staphylococcus aureus IID 803; test: Effect on treatment of general infectious disease; format: in vivo, ddY male mice; conditions: IID803, 168 h, S. aureus IID 803, 1.0×10^6 CFU/mouse i.p., oral one hour after infection, survival after one week
Description: Staphylococcus aureus IID 803 (1.0×10^6 CFU/mouse)
as §1, §2

Escherichia coli KC-14 = test: Effect on treatment of general infectious disease; format: in vivo, ddY male mice; conditions: KC14, 168 h, E. coli KC-14, 1.2×10^4 CFU/mouse i.p., oral one hour after infection, survival after one week
Description: Escherichia coli KC-14 (1.2×10^4 CFU/mouse)
as §1, §2

## CC1COc2c(N3CCN(C)CC3)c(F)cc3c(=O)c(C(=O)O)cn1c23 (racemic) [Ofloxacin, reference compound]
[1]; 54 strains of clinically isolated methicillin resistant Staphylococcus aureus
  MIC: 0.39 to 1.56 µg/mL (≈ 1.08 to 4.32 µM)
[1]; Staphylococcus aureus, minimum concentration for inhibiting the growth of the strains by 50%, 54 strains
  MIC50: 0.39 µg/mL (≈ 1.08 µM)
[1]; Staphylococcus aureus, minimum concentration for inhibiting the growth of the strains by 90%, 54 strains
  MIC90: 1.56 µg/mL (≈ 4.32 µM)
[2]
  ED50: 22.9 mg/kg
[3]
  ED50: 11.5 mg/kg
Escherichia coli KC-14
  ED50: 1.1 mg/kg
